Results from US10493131B2, “Materials and methods for modulating activity of bone marrow derived cells” (University of Florida Research Foundation, Incorporated, priority 2011, dated 2019).

How the values were obtained:
[1] = test system: CD34+ BMDEC; test: SDF-1/Relaxin induced chemotaxis (Boyden chamber); type: cell-based, human; settings: 10 μM L-NAME
Method: Isolation of CD34+ BMDEC. The study protocol was approved by the Institutional Review Board of the University of Florida, and written informed consent was obtained from each subject. Blood was collected from healthy controls by routine venipuncture into CPT™ Tubes with heparin (BD Biosciences, Franklin Lakes, N.J.), centrifuged at room temperature in a swinging bucket rotor for 20 minutes at 1800 RCF, the peripheral blood mononuclear cells (PBMCs) diluted with phosphate buffered saline supplemented with 2 mM EDTA (PBSE) and centrifuged for 10 minutes at 300 RCF. After washing the cell pellet, centrifugation was repeated. 3.3×10^7 PBMCs were resuspended in 100 μl of PBSE to which 33 μl of FcR blocking reagent (Miltenyi Biotec Inc., Auburn, Calif.) and 33 μl of magnetic microbeads conjugated with an anti-CD34 antibody was added. After incubation for 30 minutes at 4° C., the cells were diluted in 10× the volume of PBSE supplemented with 0.1% bovine serum albumin. The CD34+ BMDEC were positively selected using an automated magnetic selection autoMACS™ (Miltenyi Biotec Inc., Auburn, Calif.). […] After 4.5 hours at 5% CO2 at 37° C., the percentage of cells that migrated was determined by collecting the media in the lower chamber and determining the relative fluorescence using a Synergy™ HT (Bio-Tek Instruments, Inc., Winooski, Vt.) with an excitation of 485±20 and an emission of 528±20 nm. […]

[2] = test system: CD34+ BMDEC; test: Detection of nitric oxide (NO) produced by cells (DAF-FM fluorescence); type: cell-based, human; settings: pretreatment with MK2206 20 nM 30 minutes; 50 ng/ml rhRLX
Method: Isolation of CD34+ BMDEC. The study protocol was approved by the Institutional Review Board of the University of Florida, and written informed consent was obtained from each subject. Blood was collected from healthy controls by routine venipuncture into CPT™ Tubes with heparin (BD Biosciences, Franklin Lakes, N.J.), centrifuged at room temperature in a swinging bucket rotor for 20 minutes at 1800 RCF, the peripheral blood mononuclear cells (PBMCs) diluted with phosphate buffered saline supplemented with 2 mM EDTA (PBSE) and centrifuged for 10 minutes at 300 RCF. After washing the cell pellet, centrifugation was repeated. […]
Detection of Nitric Oxide (NO) produced by cells. […] Bioavailable NO was determined as previously described (Shah, R., Beem, E., Sautina, L., Zharikov, S. I., and Segal, M. S. 2007. Mitomycin- and calcineurin-associated HUS, endothelial dysfunction and endothelial repair: a new paradigm for the puzzle? Nephrol Dial Transplant 22:617-620). […] DAF-FM fluorescence increases by about 160-fold when it reacts with NO. Green fluorescence was measured using the inverted fluorescent Carl Zeiss Axiovert 200M microscope equipped with a CCD camera and Slidebook software (v.4.1; Intelligent Imaging Innovations, Inc. Denver, Colo.). Fluorescence intensity was measured in 20-30 cells per field in at least 6 fields per well. […]

| SMILES | effect on basal level of migration [1] | effect on relaxin-stimulated chemotaxis ([1]; 50 ng/ml rhRLX) | effect on rhRLX stimulation of NO [2] |
| --- | --- | --- | --- |
| COC(=O)[C@@H](N)CCCNC(=N)N[N+](=O)[O-] [L-NAME, L—N^G-nitroarginine methy ester] | unaffected | blocked |  |
| NC1(c2ccc(-c3nc4ccn5c(=O)[nH]nc5c4cc3-c3ccccc3)cc2)CCC1 [MK2206] |  |  | prevented |
